Measured values published in PMC4984800, “A first in man, dose-finding study of the mTORC1/mTORC2 inhibitor OSI-027 in patients with advanced solid malignancies” (British Journal of Cancer, 2016).
Where two headings read alike, the source gives them in different places.

Legend:
[1] = First-in-human trial: pharmacokinetics in plasma and urine; type: in vivo; conditions: for AUC(0-t): read-out: AUC24hr
Description: Blood and urine samples were collected at prespecified time points for 24 h after initial dose and at days 2–3 (S2) and after multiple doses on days 3–4 (S1) and 22–23 (S3) across dose levels. Predose samples were collected on days 8, 15 and 22. Urine samples were collected during cycle 1.
Descriptive statistics were used to summarise the safety data, including all patients who received at least one dose of OSI-027. All patients who completed the pharmacokinetic sampling were included in the PK analyses, which used descriptive statistics to summarise AUC0–∞, AUC0–t, Cmax, Clast, Tmax, Tlast, %AUC extrapolated, T1/2, clearance (Cl/F) and volume of distribution (Vz/F). Exploratory analysis were planned to correlate pharmacodynamics and pharmacokinetics. Response to treatment was evaluated according to Response Evaluation Criteria in Solid Tumors (RECIST) ([Therasse et al, 2000]).

[2] = tested on: p4EBP1 (Thr37/46) in PBMC; assay: Pharmacodynamics in PBMC: p4EBP1 (Thr37/46), mTORC1 effector; type: in vivo, human
Description: (§1) Drug-mediated inhibition of the mTORC1 and mTORC2 signalling was evaluated through assessing modulation of phospho-4EBP1 and phospho-PRAS40 in PBMC, as well as phospho-4EBP1 and phospho-S6 in tumour biopsies. Blood aliquots were collected prior to start dosing and at prespecified time points during the first course of treatment. Fresh tumour biopsies were obtained from selected patients during the dose escalation stage and from all patients in the expansion cohorts, at baseline and during cycle 1.
(§2) Drug-mediated inhibition of mTORC1 and mTORC2 signalling by OSI-027 was assessed by measuring inhibition of their effectors p4EBP1 (Thr37/46) and pPRAS40 (Thr246), respectively, in PBMC. In addition, paired tumour biopsies at screening and during first month of therapy were used to study target modulation.

pPRAS40 (Thr246) in PBMC = assay: Pharmacodynamics in PBMC: pPRAS40 (Thr246), mTORC2 effector; type: in vivo, human
Description: as §1, §2

[3] = human, plasma, oral, 40 mg, Schedule 2, 40 mg, N=3, median (range)
[4] = human, plasma, oral, 40 mg, Schedule 3, 40mg, Day 1, N=6, median (range)
[5] = human, plasma, oral, 40 mg, Schedule 3, 40mg, Day 22, N=4, median (range)
[6] = human, plasma, oral, 45 mg, Schedule 1, 45 mg, Day 1, N=3, median (range)
[7] = human, plasma, oral, 45 mg, Schedule 1, 45 mg, Day 3, N=3, median (range)
[8] = human, plasma, oral, 50 mg, Schedule 3, 50 mg, Day 1, N=3, median (range)
[9] = human, plasma, oral, 50 mg, Schedule 3, 50 mg, Day 22, N=1
[10] = human, plasma, oral, 65 mg, Schedule 1, 65 mg, Day 1, N=3, median (range)
[11] = human, plasma, oral, 65 mg, Schedule 1, 65 mg, Day 3, N=3, median (range)
[12] = human, plasma, oral, 80 mg, Schedule 2, 80 mg, N=4, median (range)
[13] = human, plasma, oral, 90 mg, Schedule 1, 90 mg, Day 1, N=14, median (range)
[14] = human, plasma, oral, 90 mg, Schedule 1, 90 mg, Day 3, N=14, median (range)
[15] = human, plasma, oral, 120 mg, Schedule 1, 120 mg, Day 1, N=14, median (range)
[16] = human, plasma, oral, 120 mg, Schedule 1, 120 mg, Day 3, N=13, median (range)
[17] = human, plasma, oral, 160 mg, Schedule 1, 160 mg, Day 1, N=5, median (range)
[18] = human, plasma, oral, 160 mg, Schedule 1, 160 mg, Day 3, N=5, median (range)
[19] = human, plasma, oral, 160 mg, Schedule 2, 160 mg, N=3, median (range)
[20] = human, plasma, oral, 240 mg, Schedule 2, 240mg, N=15, median (range)
[21] = 4 h after dosing, doses over 30 mg, almost universal
[22] = S1, 90 mg, during the 3 days on treatment
[23] = S1, 160 mg, during the 4-days off treatment, most patients

Compound `COc1cccc2cc(-c3nc([C@H]4CC[C@H](C(=O)O)CC4)n4ncnc(N)c34)[nH]c12` [OSI-027] has an AUC(0-inf) [1, 3] of 28600 ng·h/mL, a Cmax [1, 3] of 2510 ng/mL and a half-life ([1]; human, plasma, oral, 40 mg, Schedule 2, 40 mg, N=3, median (range), read-out: T1/2 (converted)) of 12.4 h. It also gave an AUC(0-inf) [1, 4] of 77100 ng·h/mL, a Cmax [1, 4] of 3140 ng/mL and a half-life ([1]; human, plasma, oral, 40 mg, Schedule 3, 40mg, Day 1, N=6, median (range), read-out: T1/2 (converted)) of 17.8 h. For the same compound, the Cmax [1, 5] was 3000 ng/mL, the AUC(0-t) [1, 5] was 50100 ng·h/mL and the half-life ([1]; human, plasma, oral, 40 mg, Schedule 3, 40mg, Day 22, N=4, median (range), read-out: T1/2 (converted)) was 15.9 h. It also gave an AUC(0-inf) [1, 6] of 31100 ng·h/mL, a Cmax [1, 6] of 2770 ng/mL and a half-life ([1]; human, plasma, oral, 45 mg, Schedule 1, 45 mg, Day 1, N=3, median (range), read-out: T1/2 (converted)) of 7.65 h. The Cmax [1, 7] was 3850 ng/mL, the AUC(0-t) [1, 7] was 35200 ng·h/mL and the half-life ([1]; human, plasma, oral, 45 mg, Schedule 1, 45 mg, Day 3, N=3, median (range), read-out: T1/2 (converted)) was 9.14 h. The AUC(0-inf) [1, 8] was 46200 ng·h/mL, the Cmax [1, 8] was 3040 ng/mL and the half-life ([1]; human, plasma, oral, 50 mg, Schedule 3, 50 mg, Day 1, N=3, median (range), read-out: T1/2 (converted)) was 10.3 h. It also gave a Cmax [1, 9] of 1110 ng/mL, an AUC(0-t) [1, 9] of 17200 ng·h/mL and an AUC(0-inf) [1, 10] of 50000 ng·h/mL. For the same compound, the Cmax [1, 10] was 4750 ng/mL, the half-life ([1]; human, plasma, oral, 65 mg, Schedule 1, 65 mg, Day 1, N=3, median (range), read-out: T1/2 (converted)) was 7.01 h and the Cmax [1, 11] was 5550 ng/mL. It also gave an AUC(0-t) [1, 11] of 64400 ng·h/mL, a half-life ([1]; human, plasma, oral, 65 mg, Schedule 1, 65 mg, Day 3, N=3, median (range), read-out: T1/2 (converted)) of 8.46 h and an AUC(0-inf) [1, 12] of 52600 ng·h/mL. For the same compound, the Cmax [1, 12] was 3890 ng/mL, the half-life ([1]; human, plasma, oral, 80 mg, Schedule 2, 80 mg, N=4, median (range), read-out: T1/2 (converted)) was 9.22 h and the AUC(0-inf) [1, 13] was 90300 ng·h/mL. The Cmax [1, 13] was 5440 ng/mL, the half-life ([1]; human, plasma, oral, 90 mg, Schedule 1, 90 mg, Day 1, N=14, median (range), read-out: T1/2 (converted)) was 12.1 h and the Cmax [1, 14] was 7010 ng/mL. The AUC(0-t) [1, 14] was 69600 ng·h/mL, the half-life ([1]; human, plasma, oral, 90 mg, Schedule 1, 90 mg, Day 3, N=14, median (range), read-out: T1/2 (converted)) was 12 h and the AUC(0-inf) [1, 15] was 87600 ng·h/mL. For the same compound, the Cmax [1, 15] was 5590 ng/mL, the half-life ([1]; human, plasma, oral, 120 mg, Schedule 1, 120 mg, Day 1, N=14, median (range), read-out: T1/2 (converted)) was 10.2 h and the Cmax [1, 16] was 5450 ng/mL. For the same compound, the AUC(0-t) [1, 16] was 54500 ng·h/mL, the half-life ([1]; human, plasma, oral, 120 mg, Schedule 1, 120 mg, Day 3, N=13, median (range), read-out: T1/2 (converted)) was 12.8 h and the AUC(0-inf) [1, 17] was 131000 ng·h/mL. For the same compound, the Cmax [1, 17] was 9330 ng/mL, the half-life ([1]; human, plasma, oral, 160 mg, Schedule 1, 160 mg, Day 1, N=5, median (range), read-out: T1/2 (converted)) was 10.3 h and the Cmax [1, 18] was 11000 ng/mL. It also gave an AUC(0-t) [1, 18] of 106000 ng·h/mL, a half-life ([1]; human, plasma, oral, 160 mg, Schedule 1, 160 mg, Day 3, N=5, median (range), read-out: T1/2 (converted)) of 11.9 h and an AUC(0-inf) [1, 19] of 267000 ng·h/mL. It also gave a Cmax [1, 19] of 7620 ng/mL, a half-life ([1]; human, plasma, oral, 160 mg, Schedule 2, 160 mg, N=3, median (range), read-out: T1/2 (converted)) of 24.7 h and an AUC(0-inf) [1, 20] of 125000 ng·h/mL. It also gave a Cmax [1, 20] of 8780 ng/mL, a half-life ([1]; human, plasma, oral, 240 mg, Schedule 2, 240mg, N=15, median (range), read-out: T1/2 (converted)) of 13.8 h and a half-life ([1]; human, plasma, oral, patients, estimate, based on the weekly dose schedule, read-out: half-life (converted)) of roughly 14 h. The half-life ([1]; human, plasma, oral, patients, range over groups, read-out: half-life, range) was 8 to 25 h, the Tmax ([1]; human, plasma, oral, patients, across dose levels) was no more than 4 h and the exposure versus dose ([1]; patients) was “dose proportional”. The “urinary excretion of unchanged OSI-027, range” value ([1]; patients) was 1–7%, the half-life ([1]; patients, estimate, based on the weekly dose schedule) was 14 h and the “inhibition of p4EBP1 in PBMC” value [2, 21] was “Over 50%”. For the same compound, the “inhibition of p4EBP1 in PBMC” value [2, 22] was “Over 50%”, the “target inhibition (p4EBP1) in PBMC” value [2, 23] was “Over 50%” and the “inhibition of pPRAS40 in PBMC” value (pPRAS40 (Thr246) in PBMC; [21]) was “Over 50%”. The “inhibition of pPRAS40 in PBMC” value (pPRAS40 (Thr246) in PBMC; [22]) was “Over 50%” and the “target inhibition (pPRAS40) in PBMC” value (pPRAS40 (Thr246) in PBMC; [23]) was “Over 50%”.
